The values that follow come from patent publication US12668568B2, “Adamantanyl-substituted benzamide compounds and their use as P2X7 receptor antagonists” (The University of Sydney, priority 2018, dated 2026).

Values joined by “and” are separate entries in the source; they are usually repeats but may differ in a detail not shown here. Identical values can stand only once.

Data set [1] can be described thus: Plasma protein binding, rapid equilibrium dialysis. Format: in vitro ADME. As to conditions: rat plasma, 4 hours 37° C., read-out: pb (% bound) Plasma (converted). As to the method: (§1) Determining the extent to which a molecule binds to factors present within plasma and brain is a critical phase of drug development as this determines not only the free unbound fraction available to exert the desired pharmacological actions but also influences dosing, clearance rate and the potential for drug-drug interactions. Binding is measured with the rapid equilibrium dialysis technique using cartridges consisting of two compartments (sample and buffer chamber) separated by a dialysis membrane.
(§2) All compounds are prepared in 100% DMSO to provide 10 mM stock solutions. Sample material is prepared by spiking a known volume of plasma or brain with the stock solution such that the final concentration of compound is 1 μM. This is placed in the sample chamber of the dialysis cartridge. Dialysis buffer is then added to the buffer chamber and the cartridge incubated at 37° C. for 4 hours. Following the incubation the test compound concentrations are determined in the two chambers and the % free or bound component calculated using the equation below:
(§3) [formula] [formula] In Vivo Pharmacokinetic Studies

The target of data set [2] is T1, CYP2D6 (Homo sapiens, UniProt P10635).
T1 construct: host or cells: insect cells infected with recombinant baculovirus (microsomes)
T1 sequence (P10635 whole entry): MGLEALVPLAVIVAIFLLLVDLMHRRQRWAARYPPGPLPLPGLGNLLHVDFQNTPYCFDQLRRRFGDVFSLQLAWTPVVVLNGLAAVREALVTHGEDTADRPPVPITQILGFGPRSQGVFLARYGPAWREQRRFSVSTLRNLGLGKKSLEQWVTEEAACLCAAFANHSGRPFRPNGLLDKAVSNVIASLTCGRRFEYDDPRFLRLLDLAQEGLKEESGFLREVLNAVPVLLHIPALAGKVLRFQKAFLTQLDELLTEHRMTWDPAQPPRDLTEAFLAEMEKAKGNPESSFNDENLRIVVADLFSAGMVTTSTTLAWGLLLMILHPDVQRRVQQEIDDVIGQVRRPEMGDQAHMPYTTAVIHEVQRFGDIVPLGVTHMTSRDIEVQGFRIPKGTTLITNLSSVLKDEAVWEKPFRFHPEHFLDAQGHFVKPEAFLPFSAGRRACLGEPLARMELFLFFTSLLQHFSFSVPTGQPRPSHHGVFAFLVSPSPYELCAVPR
Put plainly: Cytochrome profiling CYP2D6 (baculosomes). As to conditions: probe fluorogenic probe substrate (not named), 10 μM substrate. Format: in vitro ADME. An excerpt:
(§4) Cytochrome P450 (abbreviated CYP, P450 or CYP450) belong to very large and diverse superfamily of haemoproteins which accept both exogenous and endogenous compounds as substrates in enzymatic reactions and play a major role in drug metabolism. Although this class has more than 50 enzymes just 5 of them (CYP1A2, CYP2C9, CYP2C19, CYP2D6 and CYP3A4) are able to metabolise almost 90% of all drugs. Inhibition of these enzymes is one of the major reasons for drug-drug interactions. Consequently, detailed CYP inhibition profiles are a regulatory requirement for all new drugs. Inhibition potencies against the five most relevant CYP isoforms is performed using baculosomes; microsomes prepared from insect cells infected with recombinant baculovirus containing cDNA for a specific human P450 isozyme. The baculosomes are incubated with drug at a concentration of 1 μM in the presence of a probe substrate for 60 minutes at 37° C. The probe is normally metabolised by the baculosomes to produce a fluorescent metabolite. A substrate drug will compete for the isozyme and reduce the metabolism of the probe resulting in a decrease in the fluorescent signal. The percent inhibition due to the presence of the test compound is calculated using the following equation: [formula] • X=fluorescent intensity observed in the presence of test compound • A=fluorescent intensity observed in control • B=fluorescent intensity observed in the presence of the probe control

Data set [3] has as its target T2, CYP2C9 (Homo sapiens, UniProt P11712).
T2 construct: host or cells: insect cells infected with recombinant baculovirus (microsomes)
Put plainly: Cytochrome profiling CYP2C9 (baculosomes). To be noted: probe fluorogenic probe substrate (not named), 10 μM substrate. Format: in vitro ADME.
From the text: as §4

The nature of data set [4]: Brain tissue binding, rapid equilibrium dialysis. Format: in vitro ADME. To be noted: rat brain tissue, 4 hours 37° C., read-out: pb (% bound) Brain (converted). Here is the method: as §1, §2, §3
The target in data set [5] is T3, hP2X7R (Homo sapiens, UniProt Q99572).
T3 sequence (Q99572 1-595): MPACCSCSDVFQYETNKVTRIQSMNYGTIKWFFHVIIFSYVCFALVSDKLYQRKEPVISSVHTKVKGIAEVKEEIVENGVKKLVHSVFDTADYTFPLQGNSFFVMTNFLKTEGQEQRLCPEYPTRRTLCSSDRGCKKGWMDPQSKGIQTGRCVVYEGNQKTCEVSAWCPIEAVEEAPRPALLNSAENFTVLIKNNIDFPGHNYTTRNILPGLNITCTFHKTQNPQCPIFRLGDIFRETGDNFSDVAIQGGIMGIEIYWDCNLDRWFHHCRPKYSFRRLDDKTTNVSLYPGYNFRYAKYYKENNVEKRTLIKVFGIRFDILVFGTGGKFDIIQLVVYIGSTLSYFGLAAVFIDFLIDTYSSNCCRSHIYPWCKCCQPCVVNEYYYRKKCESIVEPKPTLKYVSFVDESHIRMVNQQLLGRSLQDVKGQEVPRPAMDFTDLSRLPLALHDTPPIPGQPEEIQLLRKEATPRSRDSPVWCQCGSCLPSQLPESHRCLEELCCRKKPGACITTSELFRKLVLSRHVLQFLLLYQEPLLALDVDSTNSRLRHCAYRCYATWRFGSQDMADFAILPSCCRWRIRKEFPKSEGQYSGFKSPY
Briefly: Yo-Pro uptake assay for P2X7R pore formation in THP-1 cells. Format: cell-based. As to conditions: for IC50: THP-1 cells, BzATP 100 μM, YO-PRO-1, mean ± standard deviation, n >4, read-out: Dye uptake IC50 hP2X7R; for LLE: pIC50 from dye uptake and LogD from HPLC. Details: Following an overnight incubation (16 h) required for THP-1 differentiation; endogenous in cells; host or cells: THP-1 (ATCC), differentiated with LPS and IFN-gamma. As to the method: HEK293T cells transfected with cDNA for the human (HEK-hP2X7) or mouse P2X7 (HEK-mP2X7) receptor (a kind gift from Dr Leanne Stokes and Prof. Jim Wiley) were cultured in DMEM/F12 with 10% FBS and 500 μg/mL G418 (all from Invitrogen). Cells were cultured in 75 cm^2 flasks and incubated at 37° C. in a 5% CO2 humidified atmosphere, maintained in log phase of growth and passaged when cell density reached 1×10^6 cells/mL (every 2-3 days).^3
P2X7R pore formation was assessed by agonist-induced uptake of the Yo-Pro-1 iodide dye. […] Final treatments (in triplicate) were made up in phosphate buffered saline (PBS), without divalent cations, containing PRO®-1 dye (2 μM). Cells were washed once in pre-warmed PBS and treatments were added to cells, with or without 2′(3′)-O-(4-benzoylbenzoyl)adenosine 5′-triphosphate (BzATP, 100 μM) as agonist. Dye uptake was measured at 37° C. using a fluorescence plate reader (BMG Labtech); with data read at λEx485nm/λEm520nm at 30 sec intervals over a 70 min period. […] IC50 values were determined from concentration-response curves derived from a four-parameter variable slope, analyzed in GraphPad Prism® (San Diego, CA).

The target of data set [6] is T3, hP2X7R. Briefly: Calcium influx assay in HEK-hP2X7 cells. In kind it is cell-based. To be noted: HEK cells expressing hP2X7R, BzATP 100 μM; mean ± standard deviation, n >3. Here is the method:
HEK293T cells transfected with cDNA for the human (HEK-hP2X7) or mouse P2X7 (HEK-mP2X7) receptor (a kind gift from Dr […] Stokes and Prof. Jim Wiley) were cultured in DMEM/F12 with 10% FBS and 500 μg/mL G418 (all from Invitrogen). […] HEK-hP2X7 or HEK-mP2X7 cells were harvested using trypsin (0.05%) with EDTA (0.03%). Cells were loaded with Fluo-4 AM (1 μM) in HBSS buffer at 37° C. for 30 min, inverting every 5 mins. […] Fluorescence was then monitored every 5 s for 5 min total monitoring. […] Data were normalized to the peak response seen with BzATP alone and the basal response seen due to injection of vehicle (see FIG. 3).

T2 sequence (P11712 whole entry): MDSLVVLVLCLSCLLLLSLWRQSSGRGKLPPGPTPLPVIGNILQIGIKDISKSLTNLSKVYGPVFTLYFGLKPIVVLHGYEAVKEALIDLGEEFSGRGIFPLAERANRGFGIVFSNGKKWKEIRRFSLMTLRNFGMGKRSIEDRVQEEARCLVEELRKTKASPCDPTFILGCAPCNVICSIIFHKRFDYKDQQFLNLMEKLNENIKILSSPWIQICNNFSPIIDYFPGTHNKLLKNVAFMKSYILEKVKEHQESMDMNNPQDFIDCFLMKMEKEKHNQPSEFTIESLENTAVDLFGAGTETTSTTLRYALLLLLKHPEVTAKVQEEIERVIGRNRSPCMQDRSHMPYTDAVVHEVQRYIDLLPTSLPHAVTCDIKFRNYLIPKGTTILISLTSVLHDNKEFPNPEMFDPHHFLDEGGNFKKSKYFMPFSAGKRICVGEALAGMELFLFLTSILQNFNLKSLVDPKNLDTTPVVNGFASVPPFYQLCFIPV

For `COc1ccc(Cl)c(C(=O)NCC23CC4(F)CC(F)(CC(F)(C4)C2)C3)c1` [Compound 1, 2-Chloro-N-((3,5,7-trifluoroadamantan-1-yl)methyl)-5-methoxybenzamide], the fraction unbound at 4 h, 1 μM was 0.105 in data set [1] and 0.0549 in data set [4]. Further, the figures for the inhibition at 60 min, 1 μM in data set [2] and in data set [3] were -29.1% and 9.26%, respectively.

For the compound `COc1ccc(Cl)c(C(=O)NCC23CC4CC(F)(CC(F)(C4)C2)C3)c1` [Compound 2, 2-Chloro-N-((3,5-difluoroadamantan-1-yl)methyl)-5-methoxybenzamide], the results for the fraction unbound at 4 h, 1 μM in data set [1] and in data set [4] were 0.115 and 0.085, respectively. For the same compound, the IC50 in data set [5] is 30.9 ± 8 nM; in data set [6] it was 10 ± 4 nM. In data set [5], this compound yielded an LLE of 4.66. Besides, the values for the inhibition at 60 min, 1 μM in data set [2] and in data set [3] were -25.3% and -3%, respectively.

Consider `COc1ccc(Cl)c(C(=O)NCC23CC4CC(CC(F)(C4)C2)C3)c1` [Compound 3, 2-Chloro-N-((3-fluoroadamantan-1-yl)methyl)-5-methoxybenzamide], for which the fraction unbound at 4 h, 1 μM in data set [1] is 0.0597; in data set [4], 0.0309. The IC50 in data set [5] was found to be 25.1 ± 2.7 nM; in data set [6], 17.4 ± 2.9 nM. The same compound gave an LLE in data set [5] of 4.33. Also, the results for the inhibition at 60 min, 1 μM in data set [2] and in data set [3] were -28.9% and 32.3%, respectively.

Consider `COc1ccc(Cl)c(C(=O)NCC23CC4CC(CC(C4)C2)C3)c1` [Compound 31, reference compound], for which the fraction unbound at 4 h, 1 μM is 0.0079 in data set [1] and 0.0027 in data set [4]. Besides, the IC50 in data set [5] is 10.5 ± 3.1 nM; in data set [6] it was 26 nM and 25.7 nM. Further, in data set [5], the LLE was found to be 3.75. The results for the inhibition at 60 min, 1 μM in data set [2] and in data set [3] were -47.3% and 75%, respectively.
